Holding throughout (assay): NCI-60 cell line screen, 48 h
Experiment [1] relates to 786-0.
Experiment [2] concerns NCI-H226.
Experiment [3] has as its system OVCAR-4.
Experiment [4] relates to RXF 393.
For experiment [5], the system named is IGROV-1.
Experiment [6] deals with SF-268.
The subject of experiment [7] is SNB-75.
In experiment [8] the test system is Malme-3M.
For experiment [9], the system named is SF-539.
For experiment [10], the system named is TK-10.
In experiment [11] the test system is ACHN.
Experiment [12] has as its system KM12.
The test system of experiment [13] is SF-295.
The subject of experiment [14] is M14.
For experiment [15], the system named is HT-29.
Experiment [16] deals with RPMI-8226.
The test system of experiment [17] is LOX IMVI.
The test system of experiment [18] is T47D.
Experiment [19] deals with OVCAR-3.

SMILES strings stand for the structures.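 Where inhibition never reached the appropriate level, the endpoint shown equals the highest concentration tested. Otherwise, values were interpolated linearly from a five-concentration, 48-hour dose response in 96-well plates. GI50 is the concentration that inhibits growth by half.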 The source made the active and inactive calls. Rule as the data show it: active = GI50 up to about 1.1 µM and inactive = higher.

For `Clc1ccc(/C(=C\c2ccccc2)Cn2ccnc2)cc1`, the GI50 in [1] is 17.4 µM (inactive); in experiment [2], 13.6 µM (inactive); in [3], 30.5 µM (inactive); in experiment [4], 17.3 µM (inactive); in [5] it was 19.6 µM (inactive); in experiment [6] it was 4.25 µM (inactive). Also, the GI50 in experiment [7] was 26.2 µM (inactive); in experiment [8], 10.2 µM (inactive); in [9], 16.3 µM (inactive); in [10], 35.6 µM (inactive); in experiment [11], 16.6 µM (inactive); in experiment [12], 4.93 µM (inactive). Further, the GI50 in experiment [13] was 17.9 µM (inactive); in experiment [14], 19.6 µM (inactive); in [15], 15.5 µM (inactive); in experiment [16] it was 22.3 µM (inactive); in experiment [17], 8.83 µM (inactive); in [18], 19.2 µM (inactive).

With `CCOC(=O)c1c(N2CCOCC2)[nH]c(=O)c(C(c2cccs2)c2c(O)c(C(=O)OCC)c(N3CCOCC3)[nH]c2=O)c1O`, the GI50 in [1], in experiment [2], in experiment [3], in [4], in [6] and in experiment [7] was > 100 µM (inactive) in each case. For the same compound, the GI50 in [8], in experiment [9], in [10], in [11], in experiment [12] and in [13] was > 100 µM (inactive) in each case. The GI50 in experiment [14], in experiment [15], in experiment [16], in [19], in experiment [17] and in experiment [18] was > 100 µM (inactive) throughout.

For the compound `S=c1nc(N/N=C/c2cccs2)c2cn[nH]c2[nH]1`, the GI50 in experiment [1] was 27.9 µM (inactive); in experiment [2], 92 µM (inactive); in experiment [3] it was 31.5 µM (inactive); in experiment [4] it was 16.1 µM (inactive); in experiment [5], 20.2 µM (inactive); in experiment [6] it was 38 µM (inactive). For the same compound, the GI50 was 97.7 µM (inactive) in [7]; 41.4 µM (inactive) in experiment [8]; 50.2 µM (inactive) in experiment [9]; 17.9 µM (inactive) in [10]; 26.8 µM (inactive) in experiment [11]; 6.43 µM (inactive) in experiment [12]. In addition, the GI50 is 12.4 µM (inactive) in [13]; 33.4 µM (inactive) in experiment [14]; 29.5 µM (inactive) in experiment [15]; 5.04 µM (inactive) in experiment [16]; 9.25 µM (inactive) in [19]; 25.5 µM (inactive) in experiment [17]. In addition, in [18], the GI50 was 23.7 µM (inactive).

Turning to `COc1ccc2c(c1)N=C1CSC(c3c(Cl)cccc3[N+](=O)[O-])N1C2` (stereo not drawn), the GI50 is 51.5 µM (inactive) in [1]; 0.918 µM (active) in experiment [2]; 56.6 µM (inactive) in experiment [3]; 29.5 µM (inactive) in experiment [4]; 62.8 µM (inactive) in [5]; 63.4 µM (inactive) in experiment [6]. The GI50 in [7] was 25.1 µM (inactive); in experiment [8], 44.3 µM (inactive); in [9], 37.2 µM (inactive); in experiment [10], 48.4 µM (inactive); in experiment [11], 36.1 µM (inactive); in experiment [12], 33.5 µM (inactive). Further, the GI50 in experiment [13] was 40.6 µM (inactive); in [14] it was 51.6 µM (inactive); in experiment [15], 38.2 µM (inactive); in experiment [16], 30 µM (inactive); in experiment [17], 35.5 µM (inactive); in experiment [18], 49 µM (inactive).

The values above are taken from ChEMBL document CHEMBL1201862, “PubChem BioAssay data set” (2004).
